The values that follow come from patent US20110152094A1, “Herbicidal compositions comprising flufenacet” (Bayer CropScience AG, priority 2009, published 2011).

What all share (assay type): in vivo
Assay [1] relates to LOLPE = Lolium perenne. Put plainly: Greenhouse trial, post-emergence (PO) action against weeds (test method 2). As to conditions: PO application; g of AS/ha: (A) 120, (B) 1200, (A)+(B) 120 + 1200; about 3 weeks after application. Here is the method:
(§1) In the standard design of the test, seeds of various broad-leaved weed and weed grass biotypes (origins) were sown in a 8-13 cm diameter pot filled with natural soil of a standard field soil (loamy silt; non-sterile) and covered with a covering soil layer of about 1 cm. The pots were then cultivated in a greenhouse (12-16 h of light, temperature day 20-22° C., night 15-18° C.) until the time of application. The pots were treated on a laboratory track sprayer with spray liquors comprising the compositions according to the invention, mixtures of the prior art or components used individually. Application of the active compounds or active compound combinations formulated as WG, WP, EC or otherwise was carried out at the appropriate growth stages of the plants. The application rate for the spray application was 100-600 l of water/ha. After the treatment, the plants were returned to the greenhouses.
(§2) About 3 weeks after the application, the soil action or/and foliar action was assessed visually according to a scale of 0-100% in comparison to an untreated comparative group: 0%=no noticeable effect compared to the untreated comparative group; 100%=full effect compared to the untreated comparative group.
(§3) (notes: the term “seeds” also includes vegetative propagation forms such as, for example, rhizome pieces; abbreviations used: h light=hours of illumination, g of AS/ha=gram of active substance per hectare, l/ha=liter per hectare, S=sensitive, R=resistant) • 1. Pre-emergence action against weeds: seeds of various broad-leaved weed and weed grass biotypes (origins) were sown in a 8-13 cm diameter pot filled with natural soil of a standard field soil (loamy silt; non-sterile) and covered with a covering soil layer of about 1 cm. The pots were then cultivated in a greenhouse (12-16 h of light, temperature day 20-22° C., night 15-18° C.) until the time of application. The pots were treated at the BBCH stage 00-10 of the seeds/plants on a laboratory track sprayer with spray liquors comprising the compositions according to the invention, mixtures or components used individually, as WG, WP, EC or other formulations. The application rate for the spray application was 100-600 l of water/ha. After the treatment, the plants were returned to the greenhouses and, when required, treated with fertilizer and watered. • 2. Post-emergence action against weeds: seeds of various broad-leaved weed and weed grass biotypes (origins) were sown in a 8-13 cm diameter pot filled with natural soil of a standard field soil (loamy silt; non-sterile) and covered with a covering soil layer of about 1 cm. The pots were then cultivated in a greenhouse (12-16 h of light, temperature day 20-22° C., night 15-18° C.) until the time of application. The pots were treated at various BBCH stages between 11-25 of the seeds/plants, i.e. generally between two to three weeks after the start of the cultivation, on a laboratory track sprayer with spray liquors comprising the compositions according to the invention, mixtures or components used individually, as WG, WP, EC or other formulations. The application rate for the spray application was 100-600 l of water/ha. After the treatment, the plants were returned to the greenhouses and, when required, treated with fertilizer and watered. • 3. Selective pre-emergence action: seeds of various crop species (origins) were sown in a 8-13 cm diameter pot filled with natural soil of a standard field soil (loamy silt; non-sterile) and covered with a covering soil layer of about 1 cm. The pots were then cultivated in a greenhouse (12-16 h of light, temperature day 20-22° C., night 15-18° C.) until the time of application. The pots were treated at the BBCH stage 00-10 of the seeds/plants on a laboratory track sprayer with spray liquors comprising the compositions according to the invention, mixtures or components used individually, as WG, WP, EC or other formulations. The application rate for the spray application was 100-600 l of water/ha. […]

Assay [2] concerns STEME = Stellaria media. The assay is described as above. The conditions noted are these: PO application; g of AS/ha: (A) 120, (B) 1200, (A)+(B) 120 + 1200; about 3 weeks after application. Here is the method: as §1, §2, §3
A further assay has as its system VIOAR = Viola arvensis. The description is as above. As to conditions: PO application; g of AS/ha: (A) 120, (B) 1200, (A)+(B) 120 + 1200; about 3 weeks after application. Here is the method:
as §1, §2, §3

Assay [3] has as its system AVEFA = Avena fatua. Description: Greenhouse trial, pre-emergence (PE) action against weeds (test method 1). As to conditions: PE application; g of AS/ha: (A) 90, (B) 1200, (A)+(B) 90 + 1200. As to the method: as §1, §2
(§4) (notes: the term “seeds” also includes vegetative propagation forms such as, for example, rhizome pieces; abbreviations used: h light=hours of illumination, g of AS/ha=gram of active substance per hectare, l/ha=liter per hectare, S=sensitive, R=resistant) • 1. Pre-emergence action against weeds: seeds of various broad-leaved weed and weed grass biotypes (origins) were sown in a 8-13 cm diameter pot filled with natural soil of a standard field soil (loamy silt; non-sterile) and covered with a covering soil layer of about 1 cm. The pots were then cultivated in a greenhouse (12-16 h of light, temperature day 20-22° C., night 15-18° C.) until the time of application. The pots were treated at the BBCH stage 00-10 of the seeds/plants on a laboratory track sprayer with spray liquors comprising the compositions according to the invention, mixtures or components used individually, as WG, WP, EC or other formulations. The application rate for the spray application was 100-600 l of water/ha. After the treatment, the plants were returned to the greenhouses and, when required, treated with fertilizer and watered. • 2. Post-emergence action against weeds: seeds of various broad-leaved weed and weed grass biotypes (origins) were sown in a 8-13 cm diameter pot filled with natural soil of a standard field soil (loamy silt; non-sterile) and covered with a covering soil layer of about 1 cm. The pots were then cultivated in a greenhouse (12-16 h of light, temperature day 20-22° C., night 15-18° C.) until the time of application. […]

For assay [4], the system named is MATCH = Matricaria chamomilla. The description is as above. The conditions noted are these: PE application; g of AS/ha: (A) 90, (B) 1200, (A)+(B) 90 + 1200. Here is the method: as §1, §2, §4
Assay [5] has as its system AVEFA = Avena fatua. Description: Greenhouse trial, pre-sowing application 7 days prior to sowing (test method 5). As to conditions: g of AS/ha: (A) 90, (B) 1200, (A)+(B) 90 + 1200. As to the method: as §1, §2
(§5) (notes: the term “seeds” also includes vegetative propagation forms such as, for example, rhizome pieces; abbreviations used: h light=hours of illumination, g of AS/ha=gram of active substance per hectare, l/ha=liter per hectare, S=sensitive, R=resistant) • 1. Pre-emergence action against weeds: seeds of various broad-leaved weed and weed grass biotypes (origins) were sown in a 8-13 cm diameter pot filled with natural soil of a standard field soil (loamy silt; non-sterile) and covered with a covering soil layer of about 1 cm. The pots were then cultivated in a greenhouse (12-16 h of light, temperature day 20-22° C., night 15-18° C.) until the time of application. The pots were treated at the BBCH stage 00-10 of the seeds/plants on a laboratory track sprayer with spray liquors comprising the compositions according to the invention, mixtures or components used individually, as WG, WP, EC or other formulations. The application rate for the spray application was 100-600 l of water/ha. After the treatment, the plants were returned to the greenhouses and, when required, treated with fertilizer and watered. • 2. Post-emergence action against weeds: seeds of various broad-leaved weed and weed grass biotypes (origins) were sown in a 8-13 cm diameter pot filled with natural soil of a standard field soil (loamy silt; non-sterile) and covered with a covering soil layer of about 1 cm. The pots were then cultivated in a greenhouse (12-16 h of light, temperature day 20-22° C., night 15-18° C.) until the time of application. The pots were treated at various BBCH stages between 11-25 of the seeds/plants, i.e. generally between two to three weeks after the start of the cultivation, on a laboratory track sprayer with spray liquors comprising the compositions according to the invention, mixtures or components used individually, as WG, WP, EC or other formulations. The application rate for the spray application was 100-600 l of water/ha. After the treatment, the plants were returned to the greenhouses and, when required, treated with fertilizer and watered. • 3. […]

The test system of assay [6] is MATCH = Matricaria chamomilla. The description is as above. The conditions noted are these: g of AS/ha: (A) 90, (B) 1200, (A)+(B) 90 + 1200. Here is the method:
as §1, §2, §5

Assay [7] deals with AVEFA = Avena fatua. Description: Greenhouse trial, PE application with different irrigation variations (test method 6). As to conditions: g of AS/ha: (A) 120, (B) 1200, (A)+(B) 120 + 1200. As to the method: as §1, §2, §3
Assay [8] deals with MATCH = Matricaria chamomilla. The assay is described as above. As to conditions: g of AS/ha: (A) 120, (B) 1200, (A)+(B) 120 + 1200. As to the method: as §1, §2, §3
Assay [9] relates to STEME = Stellaria media. Description: Greenhouse trial, activity with different soil types (test method 7). As to conditions: g of AS/ha: (A) 120, (B) 1200, (A)+(B) 120 + 1200. Here is the method: as §1, §2, §3
Assay [10] concerns ALOMY resistant (Alopecurus myosuroides). Description: Greenhouse trial, PE application on resistant biotypes (test method 8). The conditions noted are these: resistant biotype, g of AS/ha: (A) 90, (B) 1200, (A)+(B) 90 + 1200. Here is the method:
as §1, §2, §3

The subject of assay [11] is ALOMY sensitive (Alopecurus myosuroides). Described as above. The conditions noted are these: sensitive biotype, g of AS/ha: (A) 90, (B) 1200, (A)+(B) 90 + 1200. As to the method: as §1, §2, §3
Assay [12] has as its system MATCH resistant (Matricaria chamomilla). The assay is described as above. The conditions noted are these: resistant biotype, g of AS/ha: (A) 90, (B) 1200, (A)+(B) 90 + 1200, (C) 10. Here is the method:
as §1, §2, §3

For assay [13], the system named is MATCH sensitive (Matricaria chamomilla). The description is as above. The conditions noted are these: sensitive biotype, g of AS/ha: (A) 90, (B) 1200, (A)+(B) 90 + 1200, (C) 10. As to the method:
as §1, §2, §3

In assay [14] the test system is LOLPE = Lolium perenne. Description: Greenhouse trial, PE application at different sowing depths (test method 9). The conditions noted are these: g of AS/ha: (A) 120, (B) 1200, (A)+(B) 120 + 1200. As to the method:
as §1, §2, §3

Assay [15] has as its system STEME = Stellaria media. Described as above. As to conditions: g of AS/ha: (A) 120, (B) 1200, (A)+(B) 120 + 1200. Here is the method: as §1, §2, §3

The structures appear in SMILES notation.

As for `CC(C)N(C(=O)COc1nnc(C(F)(F)F)s1)c1ccc(F)cc1` [(A) flufenacet, N-(4-fluorophenyl)-N-(1-methylethyl)-2-[[5-(trifluoromethyl)-1,3,4-thiadiazol-2-yl]oxy]acetamide], in the assay on LOLPE = Lolium perenne [1], the “activity LOLPE (visual assessment, scale 0-100% vs untreated)” value amounted to 65%. The “activity STEME (visual assessment, scale 0-100% vs untreated)” value in the assay on STEME = Stellaria media [2] came out at 30%. In the assay with VIOAR = Viola arvensis, the “activity VIOAR (visual assessment, scale 0-100% vs untreated)” value stood at 40%. Moreover, the “activity AVEFA (visual assessment, scale 0-100% vs untreated)” value with AVEFA = Avena fatua [3] amounted to 85%; in the assay on AVEFA = Avena fatua [5], 70%; in the assay with AVEFA = Avena fatua [7] (irrigation from above), 85%; with AVEFA = Avena fatua [7] (irrigation from below) it was 50%. Also, the “activity MATCH (visual assessment, scale 0-100% vs untreated)” value turned out to be 15% in assay [4], 93% in assay [6], 97% in assay [8] (irrigation from above) and 35% in [8] (irrigation from below). For the same compound, the “activity STEME IU soil (visual assessment, scale 0-100% vs untreated)” value in the assay with STEME = Stellaria media [9] (IU soil (loamy silt, standard field soil)) is reported as 89%. Also, in the assay with STEME = Stellaria media [9] (IU/EC73 soil (heavier soil, higher organic substance)), the “activity STEME IU/EC73 soil (visual assessment, scale 0-100% vs untreated)” value is 0%. In addition, the “Difference of the soil types Δ^D, STEME” value with STEME = Stellaria media [9] (IU/EC73 soil versus IU soil) is given as “Δ^D −89%”. In [10], the “activity ALOMY resistant (visual assessment, scale 0-100% vs untreated)” value came out at 68%. Besides, the “activity ALOMY sensitive (visual assessment, scale 0-100% vs untreated)” value in assay [11] worked out at 80%. In assay [12], the “activity MATCH resistant (visual assessment, scale 0-100% vs untreated)” value is listed as 30%. Moreover, the “activity MATCH sensitive (visual assessment, scale 0-100% vs untreated)” value in [13] is 30%. Further, in the assay on LOLPE = Lolium perenne [14] (sowing depth 5 mm), the “activity LOLPE, sowing depth 5 mm (visual assessment, scale 0-100% vs untreated)” value is recorded as 80%. Further, the “activity LOLPE, sowing depth 20 mm (visual assessment, scale 0-100% vs untreated)” value in the assay on LOLPE = Lolium perenne [14] (sowing depth 20 mm) came to 90%. In addition, the “activity STEME, sowing depth 5 mm (visual assessment, scale 0-100% vs untreated)” value with STEME = Stellaria media [15] (sowing depth 5 mm) came to 0%. Moreover, the “activity STEME, sowing depth 20 mm (visual assessment, scale 0-100% vs untreated)” value in the assay on STEME = Stellaria media [15] (sowing depth 20 mm) amounted to 20%.
Consider `COc1nc(C)nc(NC(=O)NS(=O)(=O)c2cc(I)ccc2C(=O)O)n1` [(C) iodosulfuron, iodosulfuron], for which the “activity MATCH resistant (visual assessment, scale 0-100% vs untreated)” value in [12] came to 60%. Further, the “activity MATCH sensitive (visual assessment, scale 0-100% vs untreated)” value in assay [13] turned out to be 100%.
